According to patent publication US11195594B2, “Method for selecting anticancer agent based on protein damage information of individual to prevent anticancer agent side effects” (CIPHEROME, INC., priority 2015, dated 2021):

Test: Side effect profile of pediatric leukemia patients during busulfan preconditioning for bone marrow transplantation
Assay type: in vivo, human
Procedure: Firstly, an analysis was conducted on 146 pediatric leukemia patients showing warning signs of serious side effects during treatment with the anticancer agent busulfan (Myleran, GlaxoSmithKline, Busulfex IV, Otsuka America Pharmaceutical, Inc.) to remove bone marrow as a preconditioning for bone marrow transplantation.

[1] = of 146 pediatric leukemia patients treated with busulfan

Which “Number of patients: AUC 170 or higher” value (human, in vivo) does the source give for CS(=O)(=O)OCCCCOS(C)(=O)=O [Busulfan] here?
Its value is 71.

And the “Number of patients: Hepatic veno-occlusive disease” value (human, in vivo)?
The value was 18.

And the “Number of patients: Intermediate toxicity grade 3 or higher” value (human, in vivo)?
Its value is 11.

What about the “Number of patients: Intermediate toxicity grade 4 or higher” value (human, in vivo) of the same compound?
Its value is 1.

What about the “Number of patients: Short-term toxicity grade 3 or higher” value (human, in vivo) of the same compound?
Its value is 31.

What about the “Number of patients: Short-term toxicity grade 4 or higher” value (human, in vivo) of the same compound?
Its value is 2.

And the “Number of patients: Death” value [1]?
Its value is 36.

What about the “Number of patients: Toxicity-related death” value [1] of the same compound?
The value was 22.
